According to patent US10472352B2, “Rac inhibitors” (Geneyus LLC, priority 2017, dated 2019):
Read-outs that look alike come from different tables or passages of the source.

System: BT474 breast cancer cells
Test: BT474 Four (4) Day Cell Viability Assay
Assay type: cell-based
Conditions: BT474, 4 days; for viability at 2.5 µM: Homo sapiens, BT-474, 96 h, 32661 2.5 μM, read-out: cellular viability
Experimental: BT474 breast cancer cells that are Estrogen Receptor Positive and HER2+ were grown in 5% cFBS. 5,000 cells were seeded into each well of a 96-well plate and treated with escalating doses of lapatinib, fulvestrant, and 32661.

Q: For `FC(F)(F)c1ccc2c(SCCCCCCn3cnc(CN4CCOCC4)c3)ccnc2c1` [Compound 0032661, 4-[[1-[6-[[7-(trifluoromethyl)-4-quinolyl]sulfanyl]hexyl]imidazol-4-yl]methyl]morpholine], which “cellular viability, addition of 32661 to lapatinib and fulvestrant” value is on record?
A: enhanced the reduction of cellular viability

Q: And the “cellular viability, addition of 32661 to lapatinib and fulvestrant” value (listed as 32661)?
A: further enhanced the reduction of cellular viability

Q: What about the viability at 2.5 µM (fulvestrant 0.0 nM, lapatinib 0.0 nM) of the same molecule?
A: 96%

Q: What about the viability at 2.5 µM (fulvestrant 0.0 nM, lapatinib 6.9 nM) of the same molecule?
A: 85%

Q: And the viability at 2.5 µM (fulvestrant 0.0 nM, lapatinib 20.6 nM)?
A: 80%

Q: What about the viability at 2.5 µM (fulvestrant 0.0 nM, lapatinib 61.7 nM) of the same molecule?
A: 81%

Q: What about the viability at 2.5 µM (fulvestrant 0.0 nM, lapatinib 185.2 nM) of the same molecule?
A: 83%

Q: What about the viability at 2.5 µM (fulvestrant 0.0 nM, lapatinib 555.6 nM) of the same molecule?
A: 73%

Q: And the viability at 2.5 µM (fulvestrant 0.0 nM, lapatinib 1666.7 nM)?
A: 60%

Q: What about the viability at 2.5 µM (fulvestrant 0.0 nM, lapatinib 3333.0 nM) of the same molecule?
A: 23%

Q: What about the viability at 2.5 µM (fulvestrant 6.9 nM, lapatinib 0.0 nM) of the same molecule?
A: 90%

Q: What about the viability at 2.5 µM (fulvestrant 6.9 nM, lapatinib 6.9 nM) of the same molecule?
A: 83%

Q: What about the viability at 2.5 µM (fulvestrant 6.9 nM, lapatinib 20.6 nM) of the same molecule?
A: 80%

Q: And the viability at 2.5 µM (fulvestrant 6.9 nM, lapatinib 61.7 nM)?
A: 80%

Q: And the viability at 2.5 µM (fulvestrant 6.9 nM, lapatinib 185.2 nM)?
A: 78%

Q: And the viability at 2.5 µM (fulvestrant 6.9 nM, lapatinib 555.6 nM)?
A: 66%

Q: And the viability at 2.5 µM (fulvestrant 6.9 nM, lapatinib 1666.7 nM)?
A: 55%

Q: And the viability at 2.5 µM (fulvestrant 6.9 nM, lapatinib 3333.0 nM)?
A: 25%

Q: What about the viability at 2.5 µM (fulvestrant 20.6 nM, lapatinib 0.0 nM) of the same molecule?
A: 87%

Q: What about the viability at 2.5 µM (fulvestrant 20.6 nM, lapatinib 6.9 nM) of the same molecule?
A: 77%

Q: What about the viability at 2.5 µM (fulvestrant 20.6 nM, lapatinib 20.6 nM) of the same molecule?
A: 79%

Q: And the viability at 2.5 µM (fulvestrant 20.6 nM, lapatinib 61.7 nM)?
A: 79%

Q: What about the viability at 2.5 µM (fulvestrant 20.6 nM, lapatinib 185.2 nM) of the same molecule?
A: 76%

Q: What about the viability at 2.5 µM (fulvestrant 20.6 nM, lapatinib 555.6 nM) of the same molecule?
A: 63%

Q: What about the viability at 2.5 µM (fulvestrant 20.6 nM, lapatinib 1666.7 nM) of the same molecule?
A: 54%

Q: What about the viability at 2.5 µM (fulvestrant 20.6 nM, lapatinib 3333.0 nM) of the same molecule?
A: 25%

Q: What about the viability at 2.5 µM (fulvestrant 61.7 nM, lapatinib 0.0 nM) of the same molecule?
A: 87%

Q: What about the viability at 2.5 µM (fulvestrant 61.7 nM, lapatinib 6.9 nM) of the same molecule?
A: 78%

Q: And the viability at 2.5 µM (fulvestrant 61.7 nM, lapatinib 20.6 nM)?
A: 78%

Q: And the viability at 2.5 µM (fulvestrant 61.7 nM, lapatinib 61.7 nM)?
A: 78%

Q: What about the viability at 2.5 µM (fulvestrant 61.7 nM, lapatinib 185.2 nM) of the same molecule?
A: 73%

Q: What about the viability at 2.5 µM (fulvestrant 61.7 nM, lapatinib 555.6 nM) of the same molecule?
A: 63%

Q: What about the viability at 2.5 µM (fulvestrant 61.7 nM, lapatinib 1666.7 nM) of the same molecule?
A: 53%

Q: What about the viability at 2.5 µM (fulvestrant 61.7 nM, lapatinib 3333.0 nM) of the same molecule?
A: 21%

Q: What about the viability at 2.5 µM (fulvestrant 185.2 nM, lapatinib 0.0 nM) of the same molecule?
A: 84%

Q: And the viability at 2.5 µM (fulvestrant 185.2 nM, lapatinib 6.9 nM)?
A: 81%

Q: And the viability at 2.5 µM (fulvestrant 185.2 nM, lapatinib 20.6 nM)?
A: 82%

Q: What about the viability at 2.5 µM (fulvestrant 185.2 nM, lapatinib 61.7 nM) of the same molecule?
A: 77%

Q: What about the viability at 2.5 µM (fulvestrant 185.2 nM, lapatinib 185.2 nM) of the same molecule?
A: 73%

Q: What about the viability at 2.5 µM (fulvestrant 185.2 nM, lapatinib 555.6 nM) of the same molecule?
A: 63%

Q: And the viability at 2.5 µM (fulvestrant 185.2 nM, lapatinib 1666.7 nM)?
A: 54%

Q: What about the viability at 2.5 µM (fulvestrant 185.2 nM, lapatinib 3333.0 nM) of the same molecule?
A: 18%

Q: And the viability at 2.5 µM (fulvestrant 555.6 nM, lapatinib 0.0 nM)?
A: 83%

Q: And the viability at 2.5 µM (fulvestrant 555.6 nM, lapatinib 6.9 nM)?
A: 78%

Q: What about the viability at 2.5 µM (fulvestrant 555.6 nM, lapatinib 20.6 nM) of the same molecule?
A: 80%

Q: And the viability at 2.5 µM (fulvestrant 555.6 nM, lapatinib 61.7 nM)?
A: 79%

Q: And the viability at 2.5 µM (fulvestrant 555.6 nM, lapatinib 185.2 nM)?
A: 75%

Q: And the viability at 2.5 µM (fulvestrant 555.6 nM, lapatinib 555.6 nM)?
A: 62%

Q: And the viability at 2.5 µM (fulvestrant 555.6 nM, lapatinib 1666.7 nM)?
A: 48%

Q: And the viability at 2.5 µM (fulvestrant 555.6 nM, lapatinib 3333.0 nM)?
A: 14%

Q: And the viability at 2.5 µM (fulvestrant 1666.7 nM, lapatinib 0.0 nM)?
A: 75%

Q: What about the viability at 2.5 µM (fulvestrant 1666.7 nM, lapatinib 6.9 nM) of the same molecule?
A: 72%

Q: What about the viability at 2.5 µM (fulvestrant 1666.7 nM, lapatinib 20.6 nM) of the same molecule?
A: 73%

Q: And the viability at 2.5 µM (fulvestrant 1666.7 nM, lapatinib 61.7 nM)?
A: 72%

Q: What about the viability at 2.5 µM (fulvestrant 1666.7 nM, lapatinib 185.2 nM) of the same molecule?
A: 59%

Q: And the viability at 2.5 µM (fulvestrant 1666.7 nM, lapatinib 555.6 nM)?
A: 47%

Q: What about the viability at 2.5 µM (fulvestrant 1666.7 nM, lapatinib 1666.7 nM) of the same molecule?
A: 24%

Q: And the viability at 2.5 µM (fulvestrant 1666.7 nM, lapatinib 3333.0 nM)?
A: 7%

Q: What about the viability at 2.5 µM (fulvestrant 3333.0 nM, lapatinib 0.0 nM) of the same molecule?
A: 52%

Q: And the viability at 2.5 µM (fulvestrant 3333.0 nM, lapatinib 6.9 nM)?
A: 42%

Q: What about the viability at 2.5 µM (fulvestrant 3333.0 nM, lapatinib 20.6 nM) of the same molecule?
A: 34%

Q: What about the viability at 2.5 µM (fulvestrant 3333.0 nM, lapatinib 61.7 nM) of the same molecule?
A: 30%

Q: And the viability at 2.5 µM (fulvestrant 3333.0 nM, lapatinib 185.2 nM)?
A: 26%

Q: What about the viability at 2.5 µM (fulvestrant 3333.0 nM, lapatinib 555.6 nM) of the same molecule?
A: 22%
